The values that follow come from patent publication US20120309739A1, “AKT / PKB INHIBITORS” (ALMAC DISCOVERY LIMITED, priority 2009, published 2012).

The test system of assay [1] is PC3 and/or LnCaP cell lines. Description: In vitro cell proliferation assay (Cell Titre Glo). In kind it is cell-based. The note with it: Homo sapiens, 72 hours, read-out: inhibition of proliferation IC50. On the procedure:
Testing of the compounds was also performed using in vitro cell proliferation assays:
Cell Titre Glo (Promega) is a highly sensitive homogeneous reagent used to determine the viability of cells. The reagent uses a stable form of luciferase to measure ATP as an output of viability. The luminescent values generated in the assay are directly proportional to the number of viable cells in your assay.
The following materials were used: White, clear bottomed 96 well assay plates (Costar); Cell titre Glo reagents; LnCaP (ECACC) cells grown in RPMI medium (Invitrogen) supplemented with 10 mM HEPES (Invitrogen), 1 mM Sodium pyruvate (Invitrogen), 2 mM L-Glutamine (Invitrogen) and 10% Foetal calf serum (Invitrogen); PC3 (ECACC) cells grown in RPMI medium supplemented with 10% Foetal calf serum (Invitrogen); Trypsin (Invitrogen); PBS (Invitrogen); Biotek Synergy 4 Hybrid Plate reader; 96 well plate shaker (Stuart SSL5); Eppendorf 5414 desk-top centrifuge; Beckman Coulter cell counter Z1 single threshold system.
Prostate cell lines, PC3 and LnCaP, were washed, detached and re-suspended in their respective fresh media. The cells were pelleted by centrifugation (Eppendorf 5414) and spent supernatant discarded. The cells were re-suspended by vortex mixing, counted and seeded into clear bottom white 96 well plates at a density of 5000 cells per well. The cells were incubated (Sanyo) overnight at 37° C. ([…]/5% CO2), and next day treated with increasing concentrations of test compound formulated in fresh medium. The plates were returned to the incubator for 72 hours.
Cell Titre Glo (Promega) was prepared by mixing the supplied reagents as per manufacturer's instructions and left to stand at room temperature. The cell plates were removed from the incubator and 80 μl of the Cell Titre Glo solution added to each well. The plate was shaken for five minutes to ensure homogenous mixing of reagents and cells, then left to stand for ten minutes at room temperature.
The cell viability post compound treatment was determined by the luminescent intensity emitted from the drug treated wells in the plate. In brief, the assay plate was placed in the Biotex Synergy 4 Hybrid plate reader and the luminescence read in each well. The compound treated wells were compared to vehicle treated wells and the % inhibition of cell viability calculated.
The data was analysed using GraphPad Prism, with IC50 values generated using non-linear regression of the data set.

The target of another assay is T1, AKT2 (Homo sapiens, UniProt P31751).
T1 construct: purchased SignalChem
T1 sequence (P31751 whole entry): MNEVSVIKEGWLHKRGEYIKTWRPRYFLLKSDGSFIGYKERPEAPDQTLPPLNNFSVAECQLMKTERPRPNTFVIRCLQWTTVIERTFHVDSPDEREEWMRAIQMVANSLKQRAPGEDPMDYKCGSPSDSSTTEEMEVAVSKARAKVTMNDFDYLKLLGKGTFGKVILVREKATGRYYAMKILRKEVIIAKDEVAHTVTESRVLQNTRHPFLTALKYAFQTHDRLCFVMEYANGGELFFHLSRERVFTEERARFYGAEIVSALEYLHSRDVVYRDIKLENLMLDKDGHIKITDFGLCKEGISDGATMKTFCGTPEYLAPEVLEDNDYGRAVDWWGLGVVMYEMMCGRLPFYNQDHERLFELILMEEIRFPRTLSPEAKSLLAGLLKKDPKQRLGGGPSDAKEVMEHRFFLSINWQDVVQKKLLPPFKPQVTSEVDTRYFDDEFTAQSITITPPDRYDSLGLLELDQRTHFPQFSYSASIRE
Description: AKT Kinase Assay (IMAP fluorescent polarisation) vs AKT2. In kind it is biochemical. The note with it: activated AKT2, FAM Crosstide substrate. Put shortly: (§1)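 Each activated AKT isoform, at a pre-determined linear-range concentration, was pre-incubated 45 min at room temperature with compound in a fourteen-point half-log series. ATP plus 5′FAM-Crosstide then reacted 1 h; IMAP binding reagent stopped it (1 h). Fluorescence polarisation (ex 485/em 528 nm) versus vehicle gave IC50 by non-linear regression.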

A further assay deals with T2, AKT1 (Homo sapiens, UniProt P31749).
T2 construct: purchased SignalChem
T2 sequence (P31749 whole entry): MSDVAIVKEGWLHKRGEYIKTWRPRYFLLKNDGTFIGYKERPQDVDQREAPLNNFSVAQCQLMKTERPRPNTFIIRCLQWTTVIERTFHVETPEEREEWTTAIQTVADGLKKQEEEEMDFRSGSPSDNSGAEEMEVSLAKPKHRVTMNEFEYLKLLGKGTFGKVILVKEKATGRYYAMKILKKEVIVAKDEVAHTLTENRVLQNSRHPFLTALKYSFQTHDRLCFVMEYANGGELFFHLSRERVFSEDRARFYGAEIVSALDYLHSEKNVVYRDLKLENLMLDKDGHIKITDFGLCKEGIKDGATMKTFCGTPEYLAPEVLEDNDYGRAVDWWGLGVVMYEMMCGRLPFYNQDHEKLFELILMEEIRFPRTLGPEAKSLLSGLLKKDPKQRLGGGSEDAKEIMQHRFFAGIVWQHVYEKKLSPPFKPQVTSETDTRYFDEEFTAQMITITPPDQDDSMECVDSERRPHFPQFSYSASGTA
Description: AKT Kinase Assay (IMAP fluorescent polarisation) vs AKT1. The following applies: activated AKT1, FAM Crosstide substrate. In kind it is biochemical. Put shortly:
as §1

For a further assay, the target named is T3, AKT3 (Homo sapiens, UniProt Q9Y243).
T3 construct: purchased SignalChem
T3 sequence (Q9Y243 whole entry): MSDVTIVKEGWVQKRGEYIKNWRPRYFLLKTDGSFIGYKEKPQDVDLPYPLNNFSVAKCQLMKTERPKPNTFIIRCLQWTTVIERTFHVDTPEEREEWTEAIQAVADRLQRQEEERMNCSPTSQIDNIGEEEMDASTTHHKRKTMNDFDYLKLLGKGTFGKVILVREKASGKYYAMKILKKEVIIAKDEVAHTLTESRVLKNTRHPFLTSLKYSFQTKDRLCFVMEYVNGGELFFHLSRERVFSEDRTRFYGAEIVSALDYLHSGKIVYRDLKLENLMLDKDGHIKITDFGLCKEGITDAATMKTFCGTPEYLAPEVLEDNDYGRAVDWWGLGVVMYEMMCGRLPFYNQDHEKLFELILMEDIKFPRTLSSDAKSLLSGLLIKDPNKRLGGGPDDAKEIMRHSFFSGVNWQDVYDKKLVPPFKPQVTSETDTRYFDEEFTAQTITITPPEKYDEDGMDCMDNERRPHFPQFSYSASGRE
Description: AKT Kinase Assay (IMAP fluorescent polarisation) vs AKT3. In kind it is biochemical. The following applies: activated AKT3, FAM Crosstide substrate. In a few lines: as §1

In a further assay the test system is AKT phosphorylation. The assay is described as follows: Phosphorylation status of AKT/PI3K pathway via western blotting. In kind it is cell-based. The note with it: for 48 h at 10 μM. The text has this: Analysis of Compound Effects on AKT Signalling Pathways
Phosphorylation status of various members of the AKT/PI3K pathway were investigated via western blotting.
Materials Required for this Assay
20× Running buffer (Invitrogen); Rainbow marker ladder (GE Healthcare); Reducing buffer (Invitrogen); 20× Transfer buffer (Invitrogen); 4-12% Bis-Tris Gels (Invitrogen); Filter paper (Whatman); Nitrocellulose (Amersham); ECL plus detection reagents (GE Healthcare); Radiographic film (Kodak); Biorad Protein determination reagent (Biorad); AKT pathway signalling antibodies (Cell Signalling)
LnCaP and PC3 cell lines were washed, detached and re-suspended in fresh medium. They were seeded in 90 mm^2 dishes and incubated overnight ([…]/5% CO2) to allow adherence. […]
The medium was removed and the cells placed on ice and washed in PBS. […] The resultant supernatant was assayed for protein content using the Bradford method (Biorad) and equal quantities of protein calculated and heated in sample reducing buffer to 95° C. for ten minutes. […]
The membranes were used to determine difference in total AKT, pSer473 AKT, pGSK3β and total GSK3β (all sourced from Cell Signalling). […] The membranes were washed three times in PBS and incubated with the respective secondary antibodies (Sigma Aldrich) for two hours and the proteins were detected using ECL plus detection reagents (GE Healthcare).

Where a name gives a salt, the structure may show the parent alone. Bounds are passed on as bounds.

Consider `NC1(c2ccc(-c3oc4ccncc4c3-c3ccccc3)cc2)CCC1` [Example 1, 1-(4-(3-phenylfuro[3,2-c]pyridin-2-yl)phenyl)cyclobutanamine], for which the IC50 in assay [1] is below 10000 nM; on AKT2, 1000 to 10000 nM; at AKT1 it was 1000 to 10000 nM; at AKT3 it was 1000 to 10000 nM.

In the case of `NC1(c2ccc(-c3oc4nccnc4c3-c3ccccc3)cc2)CCC1` [Example 10, 1-(4-(7-Phenylfuro[2,3-b]pyrazin-6-yl)phenyl)cyclobutanamine.HCl], the IC50 in assay [1] was below 10000 nM; on AKT2 it was 1000 to 10000 nM; at AKT1, 1000 to 10000 nM; on AKT3, above 10000 nM.

For the molecule `NC1(c2ccc(-c3oc4nc[nH]c(=O)c4c3-c3ccccc3)cc2)CCC1` [Example 12, 6-(4-(1-Aminocyclobutyl)phenyl)-5-phenylfuro[2,3-d]pyrimidin-4(3H)-one], the IC50 in assay [1] was below 10000 nM; on AKT2, 1000 to 10000 nM; on AKT1, 1000 to 10000 nM; at AKT3, 1000 to 10000 nM.

For `CSc1nc2oc(-c3ccc(C4(N)CCC4)cc3)c(-c3ccccc3)c2c(=O)[nH]1` [Example 15, 6-(4-(1-Aminocyclobutyl)phenyl)-2-(methylthio)-5-phenylfuro[2,3-d]pyrimidin-4(3H)-one], the “inhibition of AKT phosphorylation” value in the assay with AKT phosphorylation was “inhibition of AKT phosphorylation”. In addition, the values for the IC50 on AKT2, at AKT1 and on AKT3 were 100 to 1000 nM, 100 to 1000 nM and 1000 to 10000 nM, respectively.

Take `CSc1ncc2c(-c3ccccc3)c(-c3ccc(C4(N)CCC4)cc3)oc2n1` [Example 24, 1-(4-(2-(Methylthio)-5-phenylfuro[2,3-d]pyrimidin-6-yl)phenyl)cyclobutanamine]: the IC50 in assay [1] was below 10000 nM; on AKT2, 100 to 1000 nM; at AKT1, 1000 to 10000 nM; on AKT3, above 10000 nM.

Regarding `CNc1nc(OC)c2c(-c3ccccc3)c(-c3ccc(C4(N)CCC4)cc3)oc2n1` [Example 32, 6-(4-(1-Aminocyclobutyl)phenyl)-4-methoxy-N-methyl-5-phenylfuro[2,3-d]pyrimidin-2-amine], the IC50 in assay [1] is below 10000 nM; on AKT2, 100 to 1000 nM; at AKT1 it was at most 100 nM; on AKT3, above 10000 nM.

Regarding `COc1nc(OCCO)nc2oc(-c3ccc(C4(N)CCC4)cc3)c(-c3ccccc3)c12` [Example 36, 2-((6-(4-(1-Aminocyclobutyl)phenyl)-4-methoxy-5-phenylfuro[2,3-d]pyrimidin-2-yl)oxy)ethanol], the IC50 in assay [1] was below 10000 nM; at AKT2 it was 100 to 1000 nM; on AKT1, at most 100 nM; at AKT3, above 10000 nM.

With `COc1nc(N2CCNCC2)nc2oc(-c3ccc(C4(N)CCC4)cc3)c(-c3ccccc3)c12` [Example 37, 1-(4-(4-Methoxy-5-phenyl-2-(piperazin-1-yl)furo[2,3-d]pyrimidin-6-yl)phenyl)cyclobutanamine], the IC50 in assay [1] was below 10000 nM; at AKT2, 100 to 1000 nM; at AKT1, 100 to 1000 nM; at AKT3, 1000 to 10000 nM.

Consider `NC1(c2ccc(-c3oc4ncc(-c5cccnc5)nc4c3-c3ccccc3)cc2)CCC1` [Example 150, 1-(4-(7-Phenyl-2-(pyridin-3-yl)furo[2,3-b]pyrazin-6-yl)phenyl)cyclobutanamine, 2HCl], for which the IC50 at AKT2 was 100 to 1000 nM; at AKT1, 1000 to 10000 nM; on AKT3, above 10000 nM.

Consider `CC(=O)Nc1cccc(-c2cnc3oc(-c4ccc(C5(N)CCC5)cc4)c(-c4ccccc4)c3n2)c1` [Example 151, N-(3-(6-(4-(1-Aminocyclobutyl)phenyl)-7-phenylfuro[2,3-b]pyrazin-2-yl)phenyl)acetamide, HCl], for which the IC50 on AKT2 was 1000 to 10000 nM; on AKT1, 1000 to 10000 nM; at AKT3 it was above 10000 nM.

Turning to `NC(=O)c1cccc(-c2cnc3oc(-c4ccc(C5(N)CCC5)cc4)c(-c4ccccc4)c3n2)c1` [Example 152, 3-(6-(4-(1-Aminocyclobutyl)phenyl)-7-phenylfuro[2,3-b]pyrazin-2-yl)benzamide, HCl], the IC50 on AKT2 was 1000 to 10000 nM; on AKT1, 100 to 1000 nM; on AKT3, above 10000 nM.

Consider `CSc1cnc2c(-c3ccccc3)c(-c3ccc(C4(N)CCC4)cc3)[nH]c2n1` [Example 153, 1-(4-(3-(Methylthio)-7-phenyl-5H-pyrrolo[3,2-b]pyrazin-6-yl)phenyl)cyclobutanamine], for which the IC50 at AKT2 was 100 to 1000 nM; at AKT1, 100 to 1000 nM; on AKT3, above 10000 nM.
